# Target: T1, PARP1 (Homo sapiens, UniProt P09874)
# T1 construct: endogenous in cells; host or cells: PC3
# Test: PARP1 trapping, chromatin fractionation (chromatin-bound fraction)
# Type: cell-based
# Settings: PC3 cells
# Text: The trapped PARP1 forms a toxic lesion and stalls the progress of replication forks. The replication fork collapses in BRCA1/2-deficient cancer cells, and then results in cell death. […] Six cancer cell lines were used in this assay, including two breast cancer cell lines, BRCA1-mutunt SUM149PT-BRCA1mut and SUM149PT-BRCA1rev where deleterious BRCA1 mutation is reverted to form a functional BRCA1, two ovarian cancer cell lines, BRCA1-null UWB1.289 and UWB1.289+BRCA1, a stable cell line in which wild-type BRCA1 function has been restored, and two prostate cancer cell lines, enzalutamide resistant C4-2B/MR which is homologous recombination (HR)-deficient due to Rad51 mutation, and enzalutamide insensitive PC3 which is HR-proficient.
# T1 sequence (P09874 whole entry, species assumed): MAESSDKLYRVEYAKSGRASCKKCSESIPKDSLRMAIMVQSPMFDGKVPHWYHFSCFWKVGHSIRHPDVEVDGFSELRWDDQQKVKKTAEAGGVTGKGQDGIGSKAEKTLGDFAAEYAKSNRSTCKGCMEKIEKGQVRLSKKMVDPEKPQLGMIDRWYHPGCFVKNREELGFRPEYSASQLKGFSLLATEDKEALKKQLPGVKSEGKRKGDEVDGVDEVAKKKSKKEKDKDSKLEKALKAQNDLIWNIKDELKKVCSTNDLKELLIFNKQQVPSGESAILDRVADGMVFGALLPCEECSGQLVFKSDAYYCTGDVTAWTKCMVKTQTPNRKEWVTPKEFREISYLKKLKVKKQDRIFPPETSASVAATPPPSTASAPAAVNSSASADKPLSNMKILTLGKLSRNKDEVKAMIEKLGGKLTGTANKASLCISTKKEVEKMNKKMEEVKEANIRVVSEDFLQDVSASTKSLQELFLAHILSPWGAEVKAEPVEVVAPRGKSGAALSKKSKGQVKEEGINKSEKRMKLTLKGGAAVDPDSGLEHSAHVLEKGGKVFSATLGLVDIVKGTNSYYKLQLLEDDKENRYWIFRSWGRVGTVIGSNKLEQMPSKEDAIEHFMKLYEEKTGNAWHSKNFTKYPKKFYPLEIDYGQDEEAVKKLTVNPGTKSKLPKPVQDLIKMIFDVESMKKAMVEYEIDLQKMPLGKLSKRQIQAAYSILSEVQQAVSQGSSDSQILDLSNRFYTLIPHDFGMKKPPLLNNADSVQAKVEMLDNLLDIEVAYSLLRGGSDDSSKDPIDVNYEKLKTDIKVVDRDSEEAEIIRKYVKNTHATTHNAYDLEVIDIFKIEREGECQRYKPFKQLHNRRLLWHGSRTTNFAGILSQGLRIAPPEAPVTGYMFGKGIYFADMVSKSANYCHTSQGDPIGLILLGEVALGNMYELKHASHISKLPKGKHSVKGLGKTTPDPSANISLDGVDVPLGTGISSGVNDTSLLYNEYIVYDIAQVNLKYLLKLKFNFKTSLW
molecule,measurement,setting,value
Cc1nn(C)c2ncc(C(=O)NC3C/C(=C\c4ccc(F)c(F)c4)C(=O)/C(=C/c4ccc(F)c(F)c4)C3)c(Cl)c12 (stereo not drawn) [JCS085],PARP1-trapping potency relative to JC099 (PARP1 in the chromatin-bound fraction),,higher potency in PARP1-trapping
"C=CCN(CC=C)CCOc1ccc(C(=O)NC2C/C(=C\c3ccc(F)c(F)c3)C(=O)/C(=C/c3ccc(F)c(F)c3)C2)cc1 (stereo not drawn) [JCS037, N-(3,5-Bis((E)-3,4-difluorobenzylidene)-4-oxocyclohexyl)-4-(2-(diallylamino)ethoxy)benzamide]",PARP1 trapped on DNA lesions,0.5 μM,trapped
"CCc1ccc2c(c1)CCC1(CCN(CCOc3ccc(C(=O)NC4C/C(=C\c5ccc(F)c(F)c5)C(=O)/C(=C/c5ccc(F)c(F)c5)C4)cc3)CC1)O2 (stereo not drawn) [JCS078, N-(3,5-bis((E)-3,4-difluorobenzylidene)-4-oxocyclohexyl)-4-(2-(6-ethylspiro[chromane-2,4′-piperidin]-1′-yl)ethoxy)benzamide]",PARP1-trapping potency relative to JC099 (PARP1 in the chromatin-bound fraction),,increased the accumulation of PARP1 in the chromatin-bound fraction than JC099
"CCN(CC)CCNc1ccc(C(=O)NC2C/C(=C\c3ccc(F)c(F)c3)C(=O)/C(=C/c3ccc(F)c(F)c3)C2)cc1 (stereo not drawn) [JCS070, N-(3,5-Bis((E)-3,4-difluorobenzylidene)-4-oxocyclohexyl)-4-((2-(diethylamino)ethyl)amino)benz-amide]",PARP1-trapping potency relative to JC099 (PARP1 in the chromatin-bound fraction),,higher potency in PARP1-trapping
"3-amino-N-(3,5-bis((E)-3,4-difluorobenzylidene)-4-oxocyclohexyl)-5-(4-(isopropylsulfonyl)phenyl)pyrazine-2-carboxamide [JCS089]",PARP1-trapping potency relative to JC099 (PARP1 in the chromatin-bound fraction),,their potencies were less than JC099
"CCN(CC)CCOc1ccc(C(=O)NC2C/C(=C\c3ccc(F)c(F)c3)C(=O)/C(=C/c3ccc(F)c(F)c3)C2)nc1 (stereo not drawn) [JCS131, N-(3,5-Bis((E)-3,4-difluorobenzylidene)-4-oxocyclohexyl)-5-(2-(diethylamino)ethoxy)picolinamide]",PARP1-trapping potency relative to JC099 (PARP1 in the chromatin-bound fraction),,higher potency in PARP1-trapping
"CC(=O)c1cc(C(=O)NC2C/C(=C\c3ccc(F)c(F)c3)C(=O)/C(=C/c3ccc(F)c(F)c3)C2)ccc1OCCN1CCCCC1 (stereo not drawn) [JCS103, 3-Acetyl-N-(3,5-bis((E)-3,4-difluorobenzylidene)-4-oxocyclohexyl)-4-(2-(piperidin-1-yl)ethoxy)-benzamide]",PARP1-trapping potency relative to JC099 (PARP1 in the chromatin-bound fraction),,higher potency in PARP1-trapping
"CCCCCN(CCCCC)CCOc1ccc(C(=O)NC2C/C(=C\c3ccc(F)c(F)c3)C(=O)/C(=C/c3ccc(F)c(F)c3)C2)cc1 (stereo not drawn) [JCS023, N-(3,5-Bis((E)-3,4-difluorobenzylidene)-4-oxocyclohexyl)-4-(2-(dipentylamino)ethoxy)benzamide]",PARP1 trapped on DNA lesions,0.5 μM and 2 μM,trapped
same,PARP1 trapped on DNA lesions,0.5 μM,trapped
"CCN(CC)CCOc1cccc(C(=O)NC2C/C(=C\c3ccc(F)c(F)c3)C(=O)/C(=C/c3ccc(F)c(F)c3)C2)c1 (stereo not drawn) [JCS099, N-(3,5-Bis((E)-3,4-difluorobenzylidene)-4-oxocyclohexyl)-3-(2-(diethylamino)ethoxy)benzamide]",PARP1-trapping potency relative to JC099 (PARP1 in the chromatin-bound fraction),,higher potency in PARP1-trapping
"CCOCCOc1ccc(C(=O)NC2C/C(=C\c3ccc(F)c(F)c3)C(=O)/C(=C/c3ccc(F)c(F)c3)C2)cc1 (stereo not drawn) [JCS010, N-(3,5-Bis((E)-3,4-difluorobenzylidene)-4-oxocyclohexyl)-4-(2-ethoxyethoxy)benzamide]",PARP1 trapped on DNA lesions,0.5 μM and 2 μM,trapped
O=C1/C(=C/c2ccc(F)c(F)c2)CC(NC(=O)c2ccc(OCCN3CCCCC3)cc2)C/C1=C\c1ccc(F)c(F)c1 (stereo not drawn) [JCS16],PARP1 trapped on DNA lesions,0.5 μM,trapped
"O=C1/C(=C/c2ccc(F)c(F)c2)CC(NC(=O)c2ccc(OCCN3CC4OCCOC4C3)cc2)C/C1=C\c1ccc(F)c(F)c1 (stereo not drawn) [JCS137, N-(3,5-Bis((E)-3,4-difluorobenzylidene)-4-oxocyclohexyl)-4-(2-(hexahydro-6H-[1,4]dioxino[2,3-c]pyrrol-6-yl)ethoxy)benzamide]",PARP1-trapping potency relative to JC099 (PARP1 in the chromatin-bound fraction),,their potencies were less than JC099
"O=C(CN1CCCC1=O)Nc1ccc(C(=O)NC2C/C(=C\c3ccc(F)c(F)c3)C(=O)/C(=C/c3ccc(F)c(F)c3)C2)cc1 (stereo not drawn) [JCS048, N-(3,5-bis((E)-3,4-difluorobenzylidene)-4-oxocyclohexyl)-4-(2-(2-oxopyrrolidin-1-yl)acetamido)benzamide]",PARP1 trapped on DNA lesions,0.3 μM,trapped
same,PARP1-trapping potency relative to JC099 (PARP1 in the chromatin-bound fraction),,higher potency in PARP1-trapping
"CC(C)N(CCOc1ccc(C(=O)NC2C/C(=C\c3ccc(F)c(F)c3)C(=O)/C(=C/c3ccc(F)c(F)c3)C2)cc1)C(C)C (stereo not drawn) [JCS013, N-(3,5-Bis((E)-3,4-difluorobenzylidene)-4-oxocyclohexyl)-4-(2-(diisopropylamino)ethoxy)benzamide]",PARP1 trapped on DNA lesions,0.5 μM and 2 μM,trapped
same,PARP1-trapping potency relative to JC099 (PARP1 in the chromatin-bound fraction),,higher potency in PARP1-trapping
"O=C1/C(=C/c2ccc(F)c(F)c2)CC(NC(=O)c2ccc(NCCCN3CCCC3)cc2)C/C1=C\c1ccc(F)c(F)c1 (stereo not drawn) [JCS044, N-(3,5-Bis((E)-3,4-difluorobenzylidene)-4-oxocyclohexyl)-4-((3-(pyrrolidin-1-yl)propyl)amino)benz-amide]",PARP1 trapped on DNA lesions,0.3 μM,trapped
"CCCN(CCC)CCNc1ccc(C(=O)NC2C/C(=C\c3ccc(F)c(F)c3)C(=O)/C(=C/c3ccc(F)c(F)c3)C2)cc1 (stereo not drawn) [JCS065, N-(3,5-Bis((E)-3,4-difluorobenzylidene)-4-oxocyclohexyl)-4-((2-(dipropylamino)ethyl)amino)benz-amide]",PARP1-trapping potency relative to JC099 (PARP1 in the chromatin-bound fraction),,higher potency in PARP1-trapping
"CCCN(CCC)CCOc1ccc(C(=O)NC2C/C(=C\c3ccc(F)c(F)c3)C(=O)/C(=C/c3ccc(F)c(F)c3)C2)cc1 (stereo not drawn) [JCS011, N-(3,5-Bis((E)-3,4-difluorobenzylidene)-4-oxocyclohexyl)-4-(2-(dipropylamino)ethoxy)benzamide]",PARP1 trapped on DNA lesions,0.5 μM and 2 μM,trapped
same,PARP1-trapping potency relative to JC099 (PARP1 in the chromatin-bound fraction),,higher potency in PARP1-trapping
"O=C1/C(=C/c2ccc(F)c(F)c2)CC(NC(=O)c2ccc(OCCN3CCC(C(F)(F)F)CC3)cc2)C/C1=C\c1ccc(F)c(F)c1 (stereo not drawn) [JCS077, N-(3,5-bis((E)-3,4-difluorobenzylidene)-4-oxocyclohexyl)-4-(2-(4-(trifluoromethyl)piperidin-1-yl)ethoxy)benzamide]",PARP1-trapping potency relative to JC099 (PARP1 in the chromatin-bound fraction),,increased the accumulation of PARP1 in the chromatin-bound fraction than JC099
"COCCNCCOc1ccc(C(=O)NC2C/C(=C\c3ccc(F)c(F)c3)C(=O)/C(=C/c3ccc(F)c(F)c3)C2)cc1 (stereo not drawn) [JCS031, N-(3,5-Bis((E)-3,4-difluorobenzylidene)-4-oxocyclohexyl)-4-(2-((2-methoxyethyl)amino)ethoxy)-benzamide]",PARP1 trapped on DNA lesions,0.5 μM,trapped
"O=C1/C(=C/c2ccc(F)c(F)c2)CC(NC(=O)c2ccc(NCCN3CCOCC3)cc2)C/C1=C\c1ccc(F)c(F)c1 (stereo not drawn) [JCS042, N-(3,5-Bis((E)-3,4-difluorobenzylidene)-4-oxocyclohexyl)-4-((2-morpholinoethyl)amino)benzamide]",PARP1 trapped on DNA lesions,0.3 μM,trapped
"O=C(CN1CCOCC1)Nc1ccc(C(=O)NC2C/C(=C\c3ccc(F)c(F)c3)C(=O)/C(=C/c3ccc(F)c(F)c3)C2)cc1 (stereo not drawn) [JCS047, N-(3,5-bis((E)-3,4-difluorobenzylidene)-4-oxocyclohexyl)-4-(2-morpholinoacetamido)benzamide]",PARP1 trapped on DNA lesions,0.3 μM,trapped
"O=C1/C(=C/c2ccc(F)c(F)c2)CC(NC(=O)c2ccc(NCCN3CCN(Cc4ccccc4)CC3)cc2)C/C1=C\c1ccc(F)c(F)c1 (stereo not drawn) [JCS087, 4-((2-(4-benzylpiperazin-1-yl)ethyl)amino)-N-(3,5-bis((E)-3,4-difluorobenzylidene)-4-oxocyclohexyl)benzamide]",PARP1-trapping potency relative to JC099 (PARP1 in the chromatin-bound fraction),,higher potency in PARP1-trapping
"COCCCNCCOc1ccc(C(=O)NC2C/C(=C\c3ccc(F)c(F)c3)C(=O)/C(=C/c3ccc(F)c(F)c3)C2)cc1 (stereo not drawn) [JCS030, N-(3,5-Bis((E)-3,4-difluorobenzylidene)-4-oxocyclohexyl)-4-(2-((3-methoxypropyl)amino)ethoxy)-benzamide]",PARP1 trapped on DNA lesions,0.5 μM,trapped
"O=C1/C(=C/c2ccc(F)c(F)c2)CC(NC(=O)c2ccc(NC(=O)N3CCN(C(=O)C4CC4)CC3)cc2)C/C1=C\c1ccc(F)c(F)c1 (stereo not drawn) [JCS057, N-(4-((3,5-bis((E)-3,4-difluorobenzylidene)-4-oxocyclohexyl)carbamoyl)phenyl)-4-(cyclopropanecarbonyl)piperazine-1-carboxamide]",PARP1 trapped on DNA lesions,0.3 μM,trapped
"O=C1/C(=C/c2ccc(F)c(F)c2)CC(NC(=O)c2ccc(NC(=O)N3CCCC3)cc2)C/C1=C\c1ccc(F)c(F)c1 (stereo not drawn) [JCS054, N-(4-((3,5-bis((E)-3,4-difluorobenzylidene)-4-oxocyclohexyl)carbamoyl)phenyl)pyrrolidine-1-carboxamide]",PARP1 trapped on DNA lesions,0.3 μM,trapped
same,PARP1-trapping potency relative to JC099 (PARP1 in the chromatin-bound fraction),,higher potency in PARP1-trapping
"CCCCNCCOc1ccc(C(=O)NC2C/C(=C\c3ccc(F)c(F)c3)C(=O)/C(=C/c3ccc(F)c(F)c3)C2)cc1 (stereo not drawn) [JCS034, N-(3,5-Bis((E)-3,4-difluorobenzylidene)-4-oxocyclohexyl)-4-(2-(butylamino)ethoxy)benzamide]",PARP1 trapped on DNA lesions,0.5 μM,trapped
same,PARP1-trapping potency relative to JC099 (PARP1 in the chromatin-bound fraction),,higher potency in PARP1-trapping
"CN1CCN(CCOc2ccc(C(=O)NC3C/C(=C\c4ccc(F)c(F)c4)C(=O)/C(=C/c4ccc(F)c(F)c4)C3)cc2)CC1 (stereo not drawn) [JCS038, N-(3,5-Bis((E)-3,4-difluorobenzylidene)-4-oxocyclohexyl)-4-(2-(4-methylpiperazin-1-yl)ethoxy)benz-amide]",PARP1 trapped on DNA lesions,0.3 μM,trapped

# Source: patent US20260209193A1, “NOVEL INHIBITORS OF DNA DAMAGE RESPONSES FOR CANCER THERAPY” (The Regents of the University of California, priority 2022, published 2026)
